Patent US20150196578A1, “COMBINATION THERAPY TREATMENT FOR VIRAL INFECTIONS” (priority 2009, published 2015)
“And” between values parts separate entries of the source, which are not always exact repeats. Equal entries are not always repeated. Where two headings read alike, the source gives them in different places.

Test system: Influenza A/Duck/MN/1525/81 (H5N1) virus
Set-up: species or system BALB/c mice
Conditions: mouse, in vivo

Structure (SMILES)	mice survived to day 21	survival rate [%]	mean day of death (MDD) (sodium salt)	mean day of death (MDD)
CC#CCC(C)[C@H](O)/C=C/[C@@H]1[C@H]2c3cccc(CCCC(=O)[O-])c3O[C@H]2C[C@H]1O.[Na+] (mixture of isomers) [beraprost, (+)-[1R,2R,3aS,8bS]-2,3,3a,8b-tetrahydro-2-hydroxyl-1-[(E)-(3S,4RS)-3-hydroxyl-4-methyl-1-octen-6-ynyl)-1H-cyclopenta[b]benzofuran-5-butanoic acid, sodium salt]	6 of 10	50	9.0 ± 3.9 days and 8.0 ± 2.0 days	
CCOC(=O)C1=C[C@@H](OC(CC)CC)[C@H](NC(C)=O)[C@@H](N)C1 [oseltamivir]	8 out of 10	70		9.0 ± 0.0 days and 11.4 ± 1.8 days
